Assay results published in patent US9808527B2, “Methods and compositions for treating HIV infections” (priority 2006, dated 2017).
“Also recorded” adds a separate entry of the source. Where two headings read alike, the source gives them in different places.

Legend:
MT-2 cells = assay: Cytotoxicity by MTT assay; assay type: cell-based, Human
Description: (§1) Drug susceptibility assay. The susceptibility of HIV-1LAI, HIV-2EHO, HIV-2ROD, to various drugs and the cytotoxicity of those drugs was determined by using the MTT assay. Briefly, MT-2 cells (2×10^4/mL) were exposed to 100 TCID50s (50% tissue culture infectious doses) of HIV-1LAI, HIV-2EHO, or HIV-2ROD in the presence or absence of various concentrations of drugs in 96-well microculture plates and were incubated at 37° C. for 7 days. After 100 μL of the medium was removed from each well, 3-(4,5-dimethylthiazol-2-yl)-2,5-diphenyltetrazolium bromide (MTT) solution (10 μL, 7.5 mg/mL in phosphate-buffered saline) was added to each well in the plate, followed by incubation at 37° C. for 4 hours. […] All assays were performed in duplicate or triplicate. To determine the sensitivity of HIV-1Ba-L, HIV-1ERS104 pre, and clinical multi-drug-resistant HIV-1 isolates and different subtypes of HIV-1 isolates to drugs, phytohemagglutinin-activated peripheral blood mononuclear cells (PHA-PBMs; 10^6/mL) were exposed to 50 TCID50 (50% tissue infectious dose) of each HIV-1 isolate and cultured in the presence or absence of various concentrations of drugs in 10-fold serial dilutions in 96-well microtiter culture plates. To determine the drug susceptibility of certain laboratory HIV-1 strains (HIV-1NL4-3), MT-4 cells were used as target cells. MT-4 cells (10^5/mL) were exposed to 100 TCID50 of wild type HIV-1NL4-3 and PI-resistant HIV-1NL4-3 in the presence or absence of various concentrations of drugs and were incubated at 37° C. On day 7 of culture, the supernatant was harvested and the amount of p24 Gag protein was determined by using a fully automated chemiluminescent enzyme immunoassay system (Lumipulse F; Fujirebio Inc., Tokyo, Japan) (22). […] All assays were performed in duplicate or triplicate.

HIV-1LAI = assay: MTT assay, MT-2 cells exposed to HIV-1LAI (acute HIV-1 infection assay); assay type: cell-based; conditions: for Selectivity Index: HIV-1LAI; for IC50: Human immunodeficiency virus 1, MT2, 168 h
Description: as §1

[1] = target: T1, CFP- and YFP-tagged HIV-1 protease subunits (Human immunodeficiency virus type 1 group M subtype B, UniProt P12497); assay type: cell-based; conditions: Cos-7 cells; for CFP A/B ratio (CFP fluorescence after/before photobleaching): ratio <1 = dimerization blocked
T1 construct: expressed in transfected cells; host or cells: Cos-7
Description: After 72 hr, cultured cells were examined in the FRET-HIV-1 assay system using confocal microscopy Fluoview FV500 confocal laser scanning microscope, and CFP^A/B were determined and plotted. […] The FRET efficiency was determined following acceptor photobleaching as previously described (Bastiaens et al., EMBO 1996; Siegel et al., Science's stke 2000; Firulli et al., Nature genetics, 2005; Szczesna et al., JBC 2003). Dequenching of the donor CFP by selective photobleaching of the acceptor YFP was performed by first obtaining YFP and CFP images at the same focal plane, followed by illuminating for 3 min the same image at wavelength of 488 nm with a laser power set at the maximum intensity to bleach YFP and re-capturing the same CFP and YFP images. The changes in the CFP and YFP fluorescence intensity in the images of selected regions were examined and quantified using Olympus FV500 Image software system. Background values were obtained from the regions where no cells were present and were subtracted from the values for the cells examined in all calculations. For each chimeric protein, the data were obtained from at least three independent experiments. FRET efficiency was determined using the formula: ET=(1−(IDA/ID))×100, where IDA and ID represent the steady-state donor fluorescence in the presence and absence of the acceptor, respectively. Digitized image data obtained from the experiment were prepared for presentation using Photoshop 6.0 (Adobe systems, Mountain View, Calif.). Ratios of intensities of ECFP fluorescence after photobleaching to ECFP fluorescence prior to photobleaching were determined. The ratios of more than 1 indicate that dimerization of CFP- and YFP-tagged protease subunits occurred and those of less than 1 indicate that dimerization was blocked by the test agent.
Generation of FRET-based HIV-1 expression assay. The basic concepts of the intermolecular fluorescence resonance energy transfer (FRET)-based HIV-1-expression assay (FRET-HIV-1 assay) are shown in FIG. 7. Within a plasmid (pHIV-1NL4-3), which encodes a full-length molecular infectious HIV-1 clone, the gene encoding a cyan fluorescent donor protein (CFP) was attached to the downstream end (C-terminus) of the gene encoding an HIV-1 protease subunit through the flexible linker added (five alanines), generating pHIV-1NL4-3/CFP (FIG. 7A). Within the other plasmid (pHIV-1NL4-3), the gene encoding a yellow fluorescent acceptor protein (YFP) was attached to the downstream end of protease-encoding gene in the same manner, generating pHIV-1NL4-3/YFP. Both CFP and YFP were designed to have phenylalanine and proline in the connection with reverse transcriptase so that the protease is cleaved from reverse transcriptase when two subunits dimerize and the dimerized protease acquires enzymatic activity. […] A focused laser beam excitation of CFP (triggered by Helium-Cadmium laser) results in rapid energy transfer to YFP, and most of the fluorescence photons are emitted by YFP (Miyawaki et al. Nature 388(6645):882-887 (1997)). If the dimerization is blocked, the average distance between CFP and YFP becomes larger and the energy transfer rate is decreased and the fraction of photons emitted by YFP is lowered.
In order to interpret the energy transfer efficiency quantitatively, an acceptor photobleaching technique was used, in which the change in CFP emission quenching is measured by comparing the value before and after selectively photobleaching YFP, which prevents problems associated with variable expression levels.

97ZA003 (C-R5) = assay: p24 Gag production inhibition, PHA-PBMs, subtype C isolate 97ZA003; assay type: cell-based, HIV-1
Description: as §1
(§2) The IC50 values were determined by using PHA-PBMs as target cells and the inhibition of p24 Gag protein production by each drug was used as an endpoint. All assays were conducted in duplicate, and the data shown represent mean values (±1 standard deviations) derived from the results of two or three independent experiments.

HIV-2EHO = assay: MTT assay, MT-2 cells exposed to HIV-2EHO; assay type: cell-based
Description: as §1
(§3) All assays were conducted in duplicate, and the data shown represent mean values (±1 standard deviations) derived from the results of three independent experiments.

HIV-1NL4-3 = assay: p24 Gag production inhibition, MT-4 cells, wild-type HIV-1NL4-3; assay type: cell-based
Description: as §1

92UG029 (A-X4) = assay: p24 Gag production inhibition, PHA-PBMs, subtype A isolate 92UG029; assay type: cell-based, HIV-1
Description: as §1, §2

HIV-2ROD = assay: MTT assay, MT-2 cells exposed to HIV-2ROD; assay type: cell-based
Description: as §1, §3

[2] = cytotoxicity, MTT assay, MT-2 cells, read-out: CC50
[3] = read-out: IC50 against HIV-1LAI, MT-2 cells, 100 TCID50 of HIV-1LAI, MTT assay on day 7
[4] = Human immunodeficiency virus 2, MT2, read-out: IC50 against HIV-2EHO
[5] = Human immunodeficiency virus 1, MT4, read-out: IC50 against HIV-1NL4-3 (wild type)
[6] = Human immunodeficiency virus 2, MT2, read-out: IC50 against HIV-2ROD
[7] = MT-2 cells, 100 TCID50 of HIV-1LAI, MTT assay on day 7, read-out: IC50 against HIV-1LAI
[8] = Human immunodeficiency virus 1, PHA-PBMs, p24 Gag production, read-out: IC50 against 97ZA003 (C-R5)
[9] = Human immunodeficiency virus 2, MT2, MT-2 cells, 100 TCID50, MTT assay, read-out: IC50 against HIV-2EHO
[10] = Human immunodeficiency virus 1, MT4, MT-4 cells, 100 TCID50, p24 Gag production, read-out: IC50 against HIV-1NL4-3 (wild type)
[11] = Human immunodeficiency virus 1, PHA-PBMs, p24 Gag production, read-out: IC50 against 92UG029 (A-X4)
[12] = Human immunodeficiency virus 2, MT2, MT-2 cells, 100 TCID50, MTT assay, read-out: IC50 against HIV-2ROD

SMILES | CC50 (MT-2 cells; [2]) [µM] | Selectivity Index (HIV-1LAI; MT-2 cells) | IC50 (HIV-1LAI; [3]) [nM] | inhibition of protease dimerization ([1]; 1 μM) | CFP A/B ratio (CFP fluorescence after/before photobleaching) ([1]; 1 μM) | inhibition of protease dimerization ([1]; 10 μM) | IC50 (97ZA003 (C-R5); Human immunodeficiency virus 1, read-out: IC50 against 97ZA003 (C-R5)) [µM] | IC50 (HIV-2EHO; [4]) [µM] | IC50 (HIV-1NL4-3; [5]) [µM] | IC50 (92UG029 (A-X4); Human immunodeficiency virus 1, read-out: IC50 against 92UG029 (A-X4)) [µM] | IC50 (HIV-2ROD; [6]) [µM] | IC50 (HIV-1LAI; [7]) [nM] | IC50 (97ZA003 (C-R5); [8]) [µM] | IC50 (HIV-2EHO; [9]) [µM] | IC50 (HIV-1NL4-3; [10]) [µM] | IC50 (92UG029 (A-X4); [11]) [µM] | IC50 (HIV-2ROD; [12]) [µM] | IC50 (HIV-1LAI; read-out: MTT assay (IC50, nM), Human CD4+ MT-2 cells, 100 TCID50 of HIV-1LAI, day 7) [nM] | CC50 (MT-2 cells; human, 7 days) [µM]
CC(C)(C)NC(=O)[C@@H]1C[C@@H]2CCCC[C@@H]2CN1C[C@@H](O)[C@H](Cc1ccccc1)NC(=O)[C@H](CC(N)=O)NC(=O)c1ccc2ccccc2n1 [SQV, Saquinavir] | 16.4 | 2050 | 8 ± 1 | None | 1.11±0.15 | none of these 4 PIs inhibited protease dimerization | 0.0067 ± 0.0008 | 0.003 ± 0.0004 | 0.007 ± 0.002 | 0.0048 ± 0.0005 | 0.0043 ± 0.0002 | – | – | – | – | – | – | – | –
Cc1c(O)cccc1C(=O)N[C@@H](CSc1ccccc1)[C@H](O)CN1C[C@H]2CCCC[C@H]2C[C@H]1C(=O)NC(C)(C)C [NFV, Nelfinavir] | 8.1 | – | – | None | – | none of these 4 PIs inhibited protease dimerization | – | – | – | – | – | 32 ± 4 | 0.037 ± 0.007 | 0.03 ± 0.006 | 0.033 ± 0.007 | 0.043 ± 0.006 | 0.24 ± 0.009 | – | –
CC(C)CN(CC(O)C(Cc1ccccc1)NC(=O)OC1COC2OCCC12)S(=O)(=O)c1ccc2c(c1)OCO2 (stereo not shown) [GRL-98065] | – | 71,400 | ~0.5 | dimerization was effectively blocked; also recorded: disrupt protease dimerization | – | – | – | 0.0032 ± 0.0007 | 0.0003 ± 0.0002 | – | 0.0045 ± 0.0004 | – | 0.0005 ± 0.0001 | – | – | 0.0005 ± 0.0002 | – | 0.4 | –
CC(C)CN(C[C@@H](O)[C@H](Cc1ccccc1)NC(=O)O[C@H]1CCOC1)S(=O)(=O)c1ccc(N)cc1 [APV, Amprenavir] | > 100 | – | – | – | – | – | – | – | – | – | – | 36 ± 2 | 0.033 ± 0.005 | 0.25 ± 0.08 | – | 0.046 ± 0.006 | 0.57 ± 0.01 | – | –
COC(=O)N[C@H](C(=O)N[C@@H](Cc1ccccc1)[C@@H](O)CN(Cc1ccc(-c2ccccn2)cc1)NC(=O)[C@@H](NC(=O)OC)C(C)(C)C)C(C)(C)C [ATV, Atazanavir] | – | 5750 | 4.8 ± 0.1 | None | 1.25±0.12 | none of these 4 PIs inhibited protease dimerization | – | 0.005 ± 0.002 | 0.0042 ± 0.0004 | – | 0.013 ± 0.006 | – | 0.0034 ± 0.0001 | – | – | 0.006 ± 0.002 | – | – | 27.6
CC(C)(C)NC(=O)[C@@H]1CN(Cc2cccnc2)CCN1C[C@@H](O)C[C@@H](Cc1ccccc1)C(=O)N[C@H]1c2ccccc2C[C@H]1O [IDV, indinavir] | 69.8 | – | – | – | – | – | – | – | – | – | – | 48 ± 7 | 0.037 ± 0.006 | 0.024 ± 0.005 | – | 0.044 ± 0.009 | 0.054 ± 0.003 | – | –
Cc1cccc(C)c1OCC(=O)N[C@@H](Cc1ccccc1)[C@@H](O)C[C@H](Cc1ccccc1)NC(=O)[C@H](C(C)C)N1CCCNC1=O [LPV, lopinavir] | > 100 | – | – | None | – | – | – | – | – | – | – | 7 ± 1 | 0.0073 ± 0.0006 | 0.0026 ± 0.0008 | 0.031 ± 0.009 | 0.007 ± 0.001 | 0.0049 ± 0.0008 | – | –
CC(C)c1nc(CN(C)C(=O)N[C@H](C(=O)N[C@@H](Cc2ccccc2)C[C@H](O)[C@H](Cc2ccccc2)NC(=O)OCc2cncs2)C(C)C)cs1 [RTV, ritonavir] | – | – | – | None | – | – | – | – | – | – | – | 54 ± 1 | 0.039 ± 0.004 | 0.21 ± 0.05 | 0.033 ± 0.002 | 0.071 ± 0.011 | 0.26 ± 0.01 | – | –
